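Five concentrations, 48 hours, 96-well plates. Abbreviation: GI50, concentration required for 50% inhibition of growth. The concentration for full growth arrest is given as TGI.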
Columns and labels:
Assay in all cases: growth of human tumour cells (NCI), 48 h
SK-MEL-28 melanoma = test system: SK-MEL-28 melanoma
SW-620 colon = test system: SW-620 colon
HCC-2998 colon = test system: HCC-2998 colon
NCI/ADR-RES ovarian = test system: NCI/ADR-RES ovarian
U251 CNS = test system: U251 CNS
SF-539 CNS = test system: SF-539 CNS
786-0 renal = test system: 786-0 renal
EKVX NSCLC = test system: EKVX NSCLC
UACC-62 melanoma = test system: UACC-62 melanoma
K-562 leukemia = test system: K-562 leukemia
CAKI-1 renal = test system: CAKI-1 renal
SF-295 CNS = test system: SF-295 CNS
TK-10 renal = test system: TK-10 renal
OVCAR-3 ovarian = test system: OVCAR-3 ovarian
COLO 205 colon = test system: COLO 205 colon
OVCAR-5 ovarian = test system: OVCAR-5 ovarian
HCT-15 colon = test system: HCT-15 colon
MOLT-4 leukemia = test system: MOLT-4 leukemia
NCI-H226 lung = test system: NCI-H226 lung
HL-60(TB) leukemia = test system: HL-60(TB) leukemia
MDA-MB-435 = test system: MDA-MB-435
UACC-257 melanoma = test system: UACC-257 melanoma
NCI-H23 lung = test system: NCI-H23 lung
T-47D breast = test system: T-47D breast
UO-31 renal = test system: UO-31 renal
HOP-62 NSCLC = test system: HOP-62 NSCLC
HS 578T breast = test system: HS 578T breast
HT29 colon = test system: HT29 colon
MCF7 breast = test system: MCF7 breast
SN12C renal = test system: SN12C renal
SK-MEL-2 melanoma = test system: SK-MEL-2 melanoma
SK-MEL-5 melanoma = test system: SK-MEL-5 melanoma
HOP-92 NSCLC = test system: HOP-92 NSCLC
A549 NSCLC = test system: A549 NSCLC
RXF 393 renal = test system: RXF 393 renal
RPMI-8226 leukemia = test system: RPMI-8226 leukemia
SR leukemia = test system: SR leukemia
SNB-19 CNS = test system: SNB-19 CNS
KM12 colon = test system: KM12 colon
PC-3 prostate = test system: PC-3 prostate
MALME-3M melanoma = test system: MALME-3M melanoma
OVCAR-4 ovarian = test system: OVCAR-4 ovarian
MDA-MB-231 breast = test system: MDA-MB-231 breast
A498 renal = test system: A498 renal
BT-549 breast = test system: BT-549 breast
NCI-H460 lung = test system: NCI-H460 lung
SNB-75 CNS = test system: SNB-75 CNS
ACHN renal = test system: ACHN renal
SK-OV-3 ovarian = test system: SK-OV-3 ovarian
IGROV1 ovarian = test system: IGROV1 ovarian

Question: How did the GI50 (SK-MEL-28 melanoma) turn out when CC(=O)OC[C@]12CC[C@@H](C(=O)/C=C/c3cccnc3)[C@@H]1[C@H]1CC[C@@H]3[C@@]4(C)CC[C@H](OC(C)=O)C(C)(C)[C@@H]4CC[C@@]3(C)[C@]1(C)CC2 was run?
Answer: 1.44 µM

Question: What about the TGI (SK-MEL-28 melanoma) of the same compound?
Answer: 2.89 µM

Question: What about the GI50 (SW-620 colon) of the same compound?
Answer: 1.47 µM

Question: And the TGI (SW-620 colon)?
Answer: 3.42 µM

Question: And the GI50 (HCC-2998 colon)?
Answer: 1.65 µM

Question: And the TGI (HCC-2998 colon)?
Answer: 3.23 µM

Question: What about the GI50 (NCI/ADR-RES ovarian) of the same compound?
Answer: 1.99 µM

Question: What about the TGI (NCI/ADR-RES ovarian) of the same compound?
Answer: 4.91 µM

Question: And the GI50 (U251 CNS)?
Answer: 1.6 µM

Question: What about the TGI (U251 CNS) of the same compound?
Answer: 3.35 µM

Question: What about the GI50 (SF-539 CNS) of the same compound?
Answer: 1.59 µM

Question: And the TGI (SF-539 CNS)?
Answer: 3.07 µM

Question: What about the GI50 (786-0 renal) of the same compound?
Answer: 2.42 µM

Question: What about the TGI (786-0 renal) of the same compound?
Answer: 6.71 µM

Question: What about the GI50 (EKVX NSCLC) of the same compound?
Answer: 2.18 µM

Question: What about the TGI (EKVX NSCLC) of the same compound?
Answer: 6.99 µM

Question: And the GI50 (UACC-62 melanoma)?
Answer: 1.67 µM

Question: And the TGI (UACC-62 melanoma)?
Answer: 4.08 µM

Question: What about the GI50 (K-562 leukemia) of the same compound?
Answer: 0.903 µM

Question: And the TGI (K-562 leukemia)?
Answer: > 100 µM

Question: And the GI50 (CAKI-1 renal)?
Answer: 1.26 µM

Question: And the TGI (CAKI-1 renal)?
Answer: 2.7 µM

Question: And the GI50 (SF-295 CNS)?
Answer: 1.47 µM

Question: What about the TGI (SF-295 CNS) of the same compound?
Answer: 3.19 µM

Question: What about the GI50 (TK-10 renal) of the same compound?
Answer: 1.85 µM

Question: What about the TGI (TK-10 renal) of the same compound?
Answer: 3.63 µM

Question: And the GI50 (OVCAR-3 ovarian)?
Answer: 1.71 µM

Question: What about the TGI (OVCAR-3 ovarian) of the same compound?
Answer: 3.29 µM

Question: And the GI50 (COLO 205 colon)?
Answer: 1.48 µM

Question: And the TGI (COLO 205 colon)?
Answer: 3.37 µM

Question: What about the GI50 (OVCAR-5 ovarian) of the same compound?
Answer: 1.82 µM

Question: And the TGI (OVCAR-5 ovarian)?
Answer: 4.07 µM

Question: And the GI50 (HCT-15 colon)?
Answer: 1.5 µM

Question: And the TGI (HCT-15 colon)?
Answer: 3.34 µM

Question: What about the GI50 (MOLT-4 leukemia) of the same compound?
Answer: 0.587 µM

Question: And the TGI (MOLT-4 leukemia)?
Answer: 4 µM

Question: And the GI50 (NCI-H226 lung)?
Answer: 1.72 µM

Question: What about the TGI (NCI-H226 lung) of the same compound?
Answer: 3.85 µM

Question: What about the GI50 (HL-60(TB) leukemia) of the same compound?
Answer: 0.45 µM

Question: What about the TGI (HL-60(TB) leukemia) of the same compound?
Answer: 3.29 µM

Question: What about the GI50 (MDA-MB-435) of the same compound?
Answer: 1.41 µM

Question: And the TGI (MDA-MB-435)?
Answer: 3.18 µM

Question: And the GI50 (UACC-257 melanoma)?
Answer: 1.9 µM

Question: And the TGI (UACC-257 melanoma)?
Answer: 4.68 µM

Question: And the GI50 (NCI-H23 lung)?
Answer: 1.86 µM

Question: And the TGI (NCI-H23 lung)?
Answer: 4.12 µM

Question: And the GI50 (T-47D breast)?
Answer: 1.06 µM

Question: And the TGI (T-47D breast)?
Answer: 3.53 µM

Question: And the GI50 (UO-31 renal)?
Answer: 1.37 µM

Question: And the TGI (UO-31 renal)?
Answer: 2.67 µM

Question: What about the GI50 (HOP-62 NSCLC) of the same compound?
Answer: 2.21 µM

Question: And the TGI (HOP-62 NSCLC)?
Answer: 6.37 µM

Question: And the GI50 (HS 578T breast)?
Answer: 2.24 µM

Question: What about the TGI (HS 578T breast) of the same compound?
Answer: 6.61 µM

Question: And the GI50 (HT29 colon)?
Answer: 1.87 µM

Question: What about the TGI (HT29 colon) of the same compound?
Answer: 4.74 µM

Question: What about the GI50 (MCF7 breast) of the same compound?
Answer: 1.1 µM

Question: What about the TGI (MCF7 breast) of the same compound?
Answer: 2.42 µM

Question: What about the GI50 (SN12C renal) of the same compound?
Answer: 1.59 µM

Question: What about the TGI (SN12C renal) of the same compound?
Answer: 4.35 µM

Question: What about the GI50 (SK-MEL-2 melanoma) of the same compound?
Answer: 1.8 µM

Question: What about the TGI (SK-MEL-2 melanoma) of the same compound?
Answer: 3.78 µM

Question: What about the GI50 (SK-MEL-5 melanoma) of the same compound?
Answer: 1.55 µM

Question: What about the TGI (SK-MEL-5 melanoma) of the same compound?
Answer: 2.97 µM

Question: And the GI50 (HOP-92 NSCLC)?
Answer: 1.08 µM

Question: What about the TGI (HOP-92 NSCLC) of the same compound?
Answer: 2.47 µM

Question: What about the GI50 (A549 NSCLC) of the same compound?
Answer: 1.82 µM

Question: What about the TGI (A549 NSCLC) of the same compound?
Answer: 4.69 µM

Question: And the GI50 (RXF 393 renal)?
Answer: 1.62 µM

Question: And the TGI (RXF 393 renal)?
Answer: 3.05 µM

Question: What about the GI50 (RPMI-8226 leukemia) of the same compound?
Answer: 0.839 µM

Question: What about the TGI (RPMI-8226 leukemia) of the same compound?
Answer: 3.64 µM

Question: What about the GI50 (SR leukemia) of the same compound?
Answer: 0.512 µM

Question: What about the TGI (SR leukemia) of the same compound?
Answer: > 100 µM

Question: And the GI50 (SNB-19 CNS)?
Answer: 1.89 µM

Question: What about the TGI (SNB-19 CNS) of the same compound?
Answer: 4.64 µM

Question: What about the GI50 (KM12 colon) of the same compound?
Answer: 1.69 µM

Question: What about the TGI (KM12 colon) of the same compound?
Answer: 4.13 µM

Question: And the GI50 (PC-3 prostate)?
Answer: 0.82 µM

Question: And the TGI (PC-3 prostate)?
Answer: 4.14 µM

Question: And the GI50 (MALME-3M melanoma)?
Answer: 1.38 µM

Question: And the TGI (MALME-3M melanoma)?
Answer: 2.88 µM

Question: What about the GI50 (OVCAR-4 ovarian) of the same compound?
Answer: 3.01 µM

Question: And the TGI (OVCAR-4 ovarian)?
Answer: > 100 µM

Question: What about the GI50 (MDA-MB-231 breast) of the same compound?
Answer: 1.5 µM

Question: What about the TGI (MDA-MB-231 breast) of the same compound?
Answer: 3.61 µM

Question: What about the GI50 (A498 renal) of the same compound?
Answer: 1.33 µM

Question: What about the TGI (A498 renal) of the same compound?
Answer: 2.84 µM

Question: And the GI50 (BT-549 breast)?
Answer: 1.46 µM

Question: What about the TGI (BT-549 breast) of the same compound?
Answer: 2.87 µM

Question: And the GI50 (NCI-H460 lung)?
Answer: 1.31 µM

Question: And the TGI (NCI-H460 lung)?
Answer: 3.01 µM

Question: What about the GI50 (SNB-75 CNS) of the same compound?
Answer: 1.5 µM

Question: And the TGI (SNB-75 CNS)?
Answer: 5 µM

Question: What about the GI50 (ACHN renal) of the same compound?
Answer: 1.61 µM

Question: What about the TGI (ACHN renal) of the same compound?
Answer: 3.02 µM

Question: And the GI50 (SK-OV-3 ovarian)?
Answer: 3.32 µM

Question: And the TGI (SK-OV-3 ovarian)?
Answer: 19 µM

Question: And the GI50 (IGROV1 ovarian)?
Answer: 1.87 µM

Question: And the TGI (IGROV1 ovarian)?
Answer: 4.4 µM
